# Legend:
# [1] = tested on: Swiss albino mice; experiment: assay of contortions induced by phenylbenzoquinone; assay type: in vivo; conditions: for ED50: Mus musculus
# [2] = tested on: Swiss albino mice; experiment: hot-plate assay; assay type: in vivo; conditions: Mus musculus, 0.5 h, sc, hot-plate 55° C., 30 minutes after administration, read-out: ED-50 hot-plate assay (55° C.)
# Procedure: The product under study was administered s.c. or i.p. and 30 minutes later the analgesic effect was registered. For this the animals were placed on a metallic surface kept at 50° C. or 55° C. and the time registered (latency) until the licked their hind legs and a jump. The analgesic activity was calculated at each dose, comparing the potency of the treated group with the control group. Using the results obtained the ED-50 was calculated.
# [3] = mice, oral route, dose inhibiting by 50% the contortions induced by phenylbenzoquinone i.p. 60 minutes after product
# [4] = mice, s.c. route, dose inhibiting by 50% the contortions induced by phenylbenzoquinone i.p. 30 minutes after product
smiles,measurement,setting,value
"CC(=O)Oc1ccccc1C(=O)O [Aspirin, aspirin]",ED50,"[1]; 0.5 h, mice, s.c. route, dose inhibiting by 50% the contortions induced by phenylbenzoquinone i.p. 30 minutes after product, read-out: ED-50 S.C. route",80 mg/kg
same,ED50,"[1]; 1 h, mice, oral route, dose inhibiting by 50% the contortions induced by phenylbenzoquinone i.p. 60 minutes after product, read-out: ED-50 Oral route",100 mg/kg
"Cc1c(N(C)CS(=O)(=O)[O-])c(=O)n(-c2ccccc2)n1C.[Na+] [Dipirone, dipirone]",ED-50 Oral route,[1]; [3],223 mg/kg
same,ED-50 S.C. route,[1]; [4],24 mg/kg
OC1(c2ccc(Cl)cc2)CCN(CCCCn2cc(Cl)cn2)CC1 [Example 5],ED-50 Oral route,[1]; [3],20 mg/kg
same,ED-50 S.C. route,[1]; [4],28 mg/kg
"CN1CC[C@]23c4c5ccc(O)c4O[C@H]2[C@@H](O)C=C[C@H]3[C@H]1C5 [Morfine, morphine]",ED50,[2],2 mg/kg
same,ED50,"[1]; 0.5 h, read-out: ED-50 S.C. route",1 mg/kg
same,ED50,"[1]; 1 h, read-out: ED-50 Oral route",4 mg/kg

# Reference: patent US6384055B1, “Utilization of derivatives of tetrahydropyridines (or 4-hydroxypiperidines)-butylazols in the preparation of a medicament for the treatment of pain” (Laboratorios Del Dr. Esteves, S.A., priority 1998, dated 2002)
